{"source": "ChEMBL document CHEMBL1121693", "about": "(1981)", "type_in_all_cases": "functional", "key": {"Mus musculus [1]": {"species": "Mus musculus"}, "Mus musculus [2]": {"species": "Mus musculus", "remark": "listed apart in the source"}, "Mus musculus [3]": {"species": "Mus musculus", "remark": "listed apart in the source"}}}
{"smiles": "c1ccc(C2(N3CCCCC3)CCCCC2)cc1", "note": "[PHENCYCLIDINE]", "values": [{"measurement": "No. of mice", "setting": "Mus musculus [1]", "value": 0}, {"measurement": "No. of mice", "setting": "Mus musculus [2]", "value": 4}, {"measurement": "No. of mice", "setting": "Mus musculus [3]", "value": 0}]}
